From paper PMC12767106, “In Situ Assembly of Transformable Monopeptide on Activated Neutrophils Attenuates NETs‐Induced Hepatocellular Carcinoma Metastasis by Disrupting NE Nuclear Translocation” (Advanced Science, 2025)

Tests used:
activated neutrophils = assay: Recognition of activated versus resting neutrophils, flow cytometry of PpIX; assay type: cell-based, mouse; settings: 50 µM, 1 h, neutrophils activated with PMA 100 nM, n = 3
[1] = mouse, in vivo
Hepa1-6 cells = assay: Trans-endothelial invasion assay; assay type: cell-based, mouse; settings: 48 h, versus Control group
Method: Cell migration and invasion assay […]
Matrigel tube formation assay
Murine C166 endothelial cells (3×10^4cells/well) were placed on 96-well plates coated with Matrigel (356231, Corning, New York, USA) and incubated with various treatments. […]
In vitro permeability assays and trans-endothelial invasion assays
For in vitro permeability assays, C166 cells were treated with Resting neutrophils, Control, NFTP-NPs, FTP-NPs, and NEi groups for 48 h to form an endothelial monolayer, and then Evans Blue (PHYGENE, China) was added to the upper layer of the transwell filters (0.4 μm, Corning). After 30 min, the medium in the lower layer of the chamber was collected to measure the absorbance at 620 nm (Tecan Infinite M200, Switzerland).
For trans-endothelial invasion assays, […] Hepa1-6/luc cells were seeded into transwell filters (8 μm, Corning) with endothelial cell monolayers pretreated with resting neutrophils, Control, NFTP-NPs, FTP-NPs, and NEi groups. After incubation for 48 h, the transmembrane cells were washed, fixed with 4% paraformaldehyde, stained with crystal violet, and observed under a microscope (Axiovert 200, Zeiss, Germany).
All the experiments were performed thrice. […]

NE protein = molecular target: T1, NE protein (Homo sapiens, UniProt P08246); assay: Transformation kinetics by PpIX fluorescence after addition of NE protein; assay type: physicochemical; settings: 24 h incubation, NE protein/peptide ligand about 1/1000, emission about 635 nm
T1 construct: purchased AkrivisBio MA-0156
T1 sequence (P08246 30-267): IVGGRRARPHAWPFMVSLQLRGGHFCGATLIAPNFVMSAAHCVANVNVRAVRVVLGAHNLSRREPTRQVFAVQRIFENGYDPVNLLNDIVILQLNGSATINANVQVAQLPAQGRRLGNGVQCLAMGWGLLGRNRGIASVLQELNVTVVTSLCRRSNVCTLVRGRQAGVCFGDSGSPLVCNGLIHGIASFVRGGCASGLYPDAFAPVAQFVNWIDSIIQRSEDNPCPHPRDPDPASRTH
Method: Submitted to Advanced Science temperature. Following the incubation, 10 µL of the solution was added to a copper mesh at 0 and 24 h. Filter paper was used to remove any extra droplets after an overnight stay. The samples were then stained for five minutes with uranyl acetate and then rinsed for one minute with water (10 µL). Finally, dried samples were observed by TEM (Talos 120C, Thermo Fisher Scientific, USA). DLS (Zetasizer Nano ZS, UK) was used to assess the solution for hydrodynamic size and zeta potential at 0 and 24 h following the incubation. Then, the nanofiber structure at 0 h and 24 h after incubation of FTP-NPs was examined with Circular Dichroism (CD) Spectra (Chirascan, UM, Britain). In addition, the variation of fluorescence emission spectra of PpIX by […]
transformation of FTP-NPs.
Pyrene molecules were employed as an indicator to determine the critical aggregation concentration (CAC) of nanoparticles by comparing the fluorescence of their third and first emissive peaks. […] The fluorescence spectra of pyrene (excitation, 335 nm) in different NPs dilutions were recorded. The fluorescence intensity ratio (I3/I1) of the third and first emissive peaks was measured for CAC calculation. […]

PpIX-GFFVLK-EAIPMSIPPEVK [FTP-NPs]
PpIX fluorescence of activated neutrophils relative to resting neutrophils (activated neutrophils): about 2.8 times | toxicity in mice (liver function, platelets, creatinine, blood cell count) [1]: nontoxic | number of Hepa1-6 cells passing through the endothelial monolayer (Hepa1-6 cells): significantly lower | fluorescence intensity of PpIX after addition of NE protein (NE protein): 78.3%
